Measurements: US10875855B2 (priority 2011, dated 2020)
Read-outs that look alike come from different tables or passages of the source.

What was measured:
[1] = tested on: influenza A virus (A/PR/8/34); test: MDCK cytopathic effect (CPE) cell protection assay, ATP detection; format: cell-based
[2] = tested on: influenza A virus (A/PR/8/34); test: microbe, parasite or virus in culture; format: cell-based
[3] = Table 1, MDCK cells, A/PR/8/34, 72 hours, 50% cell protection, mean all, class symbol, read-out: MDCK IC50
[4] = Table 1, mean all, class symbol
[5] = Table 1, viral RNA 50% of control wells, mean all, class symbol, read-out: bDNA EC50
[6] = Influenza A virus, PR/8, MDCK, 72 h, Table 1, MDCK cells, A/PR/8/34, 72 hours, 50% cell protection, mean all, class symbol, read-out: MDCK IC50
[7] = Influenza A virus, PR/8, Table 1, mean all, class symbol, read-out: bDNA EC99
[8] = Influenza A virus, PR/8, Table 1, viral RNA 50% of control wells, mean all, class symbol, read-out: bDNA EC50

| Compound | IC50 [1, 6] | EC99 [2, 7] | EC50 [2, 8] | other results |
| --- | --- | --- | --- | --- |
| CC(C)(C)[C@@H](CC(O)CO)Nc1nc(-c2c[nH]c3ncc(F)cc23)ncc1F (stereo partly drawn) [Compound 71, (4R)-4-((5-fluoro-2-(5-fluoro-1H-pyrrolo[2,3-b]pyridin-3-yl)pyrimidin-4-yl)amino)-5,5-dimethylhexane-1,2-diol] |  |  |  | IC50 [1, 3]: < 300 nM; bDNA EC99 (uM) [2, 4]: A (EC99 (mean all)<0.3 μM); EC50 [2, 5]: < 300 nM |
| CC1([C@@H](CC(=O)O)Nc2nc(-c3c[nH]c4ncc(F)cc34)c(C#N)cc2F)CCCC1 [Compound 8, (R)-3-(5-cyano-3-fluoro-6-(5-fluoro-1H-pyrrolo[2,3-b]pyridin-3-yl)pyridin-2-ylamino)-3-(1-methylcyclopentyl)propanoic acid] |  |  |  | IC50 [1, 3]: < 300 nM; EC50 [2, 5]: < 300 nM |
| CNS(=O)(=O)C[C@@H](Nc1nc(-c2c[nH]c3ncc(F)cc23)ncc1F)C(C)(C)C [Compound 19, (S)-2-(5-fluoro-2-(5-fluoro-1H-pyrrolo[2,3-b]pyridin-3-yl)pyrimidin-4ylamino)-N,3,3-trimethylbutane-1-sulfonamide] | < 300 nM | < 0.3 µM | < 300 nM |  |
| CC(C)(C)C(CC(=O)O)Nc1nc(-c2c[nH]c3ncc(F)cc23)ncc1Cl (racemic) [Compound 85, (+/−)-3-((5-chloro-2-(5-fluoro-1H-pyrrolo[2,3-b]pyridin-3-yl)pyrimidin-4-yl)amino)-4,4-dimethylpentanoic acid] | 300 to 3300 nM | > 3.3 µM | < 300 nM |  |
| CC(C)(C)C(Nc1nc(-c2c[nH]c3ncc(F)cc23)ncc1F)C1CC1C(=O)O (single isomer, unassigned) [Compound 51, 2-(1-((5-fluoro-2-(5-fluoro-1H-pyrrolo[2,3-b]pyridin-3-yl)pyrimidin-4-yl)amino)-2,2-dimethylpropyl)cyclopropanecarboxylic acid] | < 300 nM |  | < 300 nM | bDNA EC99 (uM) [2, 4]: C (EC99 (mean all)>3.3 μM) |
| CC(C)(C)[C@@H](CS(=O)(=O)NCC(F)F)Nc1nc(-c2c[nH]c3ncc(F)cc23)ncc1F [Compound 57, (S)—N-(2,2-difluoroethyl)-2-(5-fluoro-2-(5-fluoro-H-pyrrolo[2,3-b]pyridin-3-yl)pyrimidin-4-ylamino)-3,3-dimethylbutane-1-sulfonamide] | < 300 nM | < 0.3 µM | < 300 nM |  |
| CC1(C(CC(=O)O)Nc2nc(-c3c[nH]c4ncc(F)cc34)c(C#N)cc2F)CCCC1 (centres unmarked) [Compound 13] | < 300 nM | < 0.3 µM | < 300 nM |  |
| CC(C)(C)[C@@H](CC(=O)O)Nc1ccnc(-c2c[nH]c3ncc(F)cc23)n1 [Compound 47, (R)-3-((2-(5-fluoro-1H-pyrrolo[2,3-b]pyridin-3-yl)pyrimidin-4-yl)amino)-4,4-dimethylpentanoic acid] | < 300 nM | 0.3 to 3.3 µM | < 300 nM |  |
| CC(C)(C)[C@@H](CC(=O)O)Nc1nc(-c2c[nH]c3ncc(C(F)(F)F)cc23)ncc1F [Compound 43, (R)-3-((5-fluoro-2-(5-(trifluoromethyl)-1H-pyrrolo[2,3-b]pyridin-3-yl)pyrimidin-4-yl)amino)-4,4-dimethylpentanoic acid] | < 300 nM | < 0.3 µM | < 300 nM |  |
| CC(C)(C)N(CC(=O)O)Nc1nc(-c2c[nH]c3ncc(Cl)cc23)ncc1F [Compound 56, 2-(1-(tert-butyl)-2-(2-(5-chloro-1H-pyrrolo[2,3-b]pyridin-3-yl)-5-fluoropyrimidin-4-yl)hydrazinyl)acetic acid] | < 300 nM | < 0.3 µM | < 300 nM |  |
| CC1(C(CC(=O)O)Nc2nc(-c3c[nH]c4ncc(F)cc34)ncc2F)CCC1 (centres unmarked) [Compound 63] | < 300 nM | < 0.3 µM | < 300 nM |  |
| CCC(C)(C)C(CC(=O)O)Nc1nc(-c2c[nH]c3ncc(F)cc23)ncc1F (centres unmarked) [Compound 17, 3-((5-fluoro-2-(5-fluoro-1H-pyrrolo[2,3-b]pyridin-3-yl)pyrimidin-4-yl)amino)-4,4-dimethylhexanoic acid] |  |  |  | IC50 [1, 3]: 300 to 3300 nM; bDNA EC99 (uM) [2, 4]: C (EC99 (mean all)>3.3 μM); EC50 [2, 5]: 300 to 3300 nM |
| CC1([C@@H](CC(=O)O)Nc2nc(-c3c[nH]c4ncc(F)cc34)ncc2F)CC1 [Compound 91, (R)-3-((5-fluoro-2-(5-fluoro-1H-pyrrolo[2,3-b]pyridin-3-yl)pyrimidin-4-yl)amino)-3-(1-methylcyclopropyl)propanoic acid] | < 300 nM |  | < 300 nM | bDNA EC99 (uM) [2, 4]: B (0.3 μM≤EC99 (mean all)≤3.3 μM) |
| CC(C)(C)[C@@H](CS(=O)(=O)O)Nc1nc(-c2c[nH]c3ncc(F)cc23)ncc1F [Compound 11, (S)-2-(5-fluoro-2-(5-fluoro-1H-pyrrolo[2,3-b]pyridin-3-yl)pyrimidin-4-ylamino)-3,3-dimethylbutane-1-sulfonic acid] | < 300 nM | < 0.3 µM | < 300 nM |  |
| CC(C)(C)[C@@H](CS(N)(=O)=O)Nc1nc(-c2c[nH]c3ncc(F)cc23)ncc1F [Compound 22, (S)-2-(5-fluoro-2-(5-fluoro-1H-pyrrolo[2,3-b]pyridin-3-yl)pyrimidin-4-ylamino)-3,3-dimethylbutane-1-sulfonamide] | < 300 nM | 0.3 to 3.3 µM | < 300 nM |  |
| CC(C)(C)[C@@H](CS(=O)(=O)NCC(F)(F)F)Nc1nc(-c2c[nH]c3ncc(F)cc23)ncc1F [Compound 58, (S)-2-(5-fluoro-2-(5-fluoro-1H-pyrrolo[2,3-b]pyridin-3-yl)pyrimidin-4-ylamino)-3,3-dimethyl-N-(2,2,2-trifluoroethyl)butane-1-sulfonamide] | < 300 nM | < 0.3 µM | < 300 nM |  |
| CC(C)(C)C(CCO)Nc1nc(-c2c[nH]c3ncc(F)cc23)ncc1F (racemic) [Compound 45, (+/−)-3-((5-fluoro-2-(5-fluoro-1H-pyrrolo[2,3-b]pyridin-3-yl)pyrimidin-4-yl)amino)-4,4-dimethylpentan-1-ol] | 300 to 3300 nM | > 3.3 µM | < 300 nM |  |
| CC(C)(C)[C@@H](CC(=O)O)Nc1ccnc(-c2n[nH]c3ncc(F)cc23)n1 [Compound 48, (R)-3-((2-(5-fluoro-1H-pyrazolo[3,4-b]pyridin-3-yl)pyrimidin-4-yl)amino)-4,4-dimethylpentanoic acid] | < 300 nM | 0.3 to 3.3 µM | 300 to 3300 nM |  |
| CC(C)(C(CC(=O)O)Nc1nc(-c2c[nH]c3ncc(F)cc23)ncc1F)C(F)(F)F (racemic) [Compound 79, (+/−)-5,5,5-Trifluoro-3-(5-fluoro-2-(5-fluoro-1H-pyrrolo[2,3-b]pyridin-3-yl)pyrimidin-4-ylamino)-4,4-dimethylpentanoic acid] | 300 to 3300 nM | 0.3 to 3.3 µM | < 300 nM |  |
| O=C(O)CC(Nc1nc(-c2c[nH]c3ncc(F)cc23)ncc1F)C12CC3CC(CC(C3)C1)C2 (racemic) [Compound 86, (+/−)-3-(1-Adamantyl)-3-[[5-fluoro-2-(5-fluoro-1H-pyrrolo[2,3-b]pyridin-3-yl)pyrimidin-4-yl]amino]propionic acid] | < 300 nM | 0.3 to 3.3 µM | < 300 nM |  |
| CC(C)(C)[C@@H](Cn1cc(CO)nn1)Nc1nc(-c2c[nH]c3ncc(F)cc23)ncc1F [Compound 68, (S)-(1-(2-((5-fluoro-2-(5-fluoro-1H-pyrrolo[2,3-b]pyridin-3-yl)pyrimidin-4-yl)amino)-3,3-dimethylbutyl)-1H-1,2,3-triazol-4-yl)methanol] | 300 to 3300 nM | 0.3 to 3.3 µM | < 300 nM |  |
| COC(=O)C[C@@H](Nc1nc(-c2n[nH]c3ncc(Cl)cc23)ncc1F)C(C)(C)C [Compound 96] | < 300 nM | 0.3 to 3.3 µM | < 300 nM |  |
| CC(C)NS(=O)(=O)C[C@@H](Nc1nc(-c2c[nH]c3ncc(F)cc23)ncc1F)C(C)(C)C [Compound 39] | < 300 nM | 0.3 to 3.3 µM | < 300 nM |  |
| CC(C)(C)[C@@H](CC(O)CO)Nc1nc(-c2c[nH]c3ncc(F)cc23)ncc1F (stereo partly drawn) [Compound 70, (4R)-4-((5-fluoro-2-(5-fluoro-1H-pyrrolo[2,3-b]pyridin-3-yl)pyrimidin-4-yl)amino)-5,5-dimethylhexane-1,2-diol] | < 300 nM | 0.3 to 3.3 µM | < 300 nM |  |
| CC(C)(C)[C@@H](CC(=O)O)Nc1nc(-c2n[nH]c3ncc(F)cc23)c(F)cc1F [Compound 6, (R)-3-((3,5-difluoro-6-(5-fluoro-1H-pyrazolo[3,4-b]pyridin-3-yl)pyridin-2-yl)amino)-4,4-dimethylpentanoic acid] | < 300 nM | < 0.3 µM | < 300 nM | IC50 ([1]; Influenza A virus, PR/8, MDCK, exemplary data, MDCK cell protection, read-out: IC50): 4 nM; EC50 ([2]; Influenza A virus, PR/8, exemplary data, bDNA, read-out: EC50): 15 nM; EC99 ([2]; exemplary data, bDNA): 0.082 µM |
| CC(C)(C)C(Nc1nc(-c2c[nH]c3ncc(F)cc23)ncc1F)C1CC1C(=O)O (single isomer, unassigned) [Compound 52, 2-(1-((5-fluoro-2-(5-fluoro-1H-pyrrolo[2,3-b]pyridin-3-yl)pyrimidin-4-yl)amino)-2,2-dimethylpropyl)cyclopropanecarboxylic acid] |  |  |  | IC50 [1, 3]: < 300 nM; bDNA EC99 (uM) [2, 4]: B (0.3 μM≤EC99 (mean all)≤3.3 μM); EC50 [2, 5]: < 300 nM |
| CC(C)(C)[C@@H](CC(=O)O)Nc1nc(-c2c[nH]c3ncc(C#N)cc23)ncc1F [Compound 89, (R)-3-((2-(5-cyano-1H-pyrrolo[2,3-b]pyridin-3-yl)-5-fluoropyrimidin-4-yl)amino)-4,4-dimethylpentanoic acid] | < 300 nM | 0.3 to 3.3 µM | < 300 nM |  |
| O=C(O)CC(Nc1nc(-c2c[nH]c3ncc(F)cc23)ncc1F)C12CCC(CC1)C2 (racemic) [Compound 95, (+/−)-3-(Bicyclo[2.2.1]heptan-1-yl)-3-(5-fluoro-2-(5-fluoro-1H-pyrrolo[2,3-b]pyridin-3-yl)pyrimidin-4-ylamino)propanoic acid] | < 300 nM | 0.3 to 3.3 µM | < 300 nM |  |
